The source of these data is patent US20250387360A1, “Methods and Compositions for Treatment of Addiction” (University of Connecticut, priority 2024, published 2025).

The subject of this assay is male C57BL/6J mice. Put plainly: 4-day DID binge-like ethanol drinking with SCFA supplementation in drinking water. The class given is in vivo, mouse. Particulars: for alcohol intake with SCFA supplement: 200 mM in drinking water 10 days, n=7 mice/group. From the text: Male C57BL/6J mice, (RRID: IMSR_JAX: 000664), aged 6-8 weeks, were obtained from Jackson Laboratories (ME, U.S.A) for the study. The mice were housed individually under a reversed 12-hours light/dark cycle, with lights off from […] to 7:00 am. A minimum acclimation period of 2 weeks was provided for all animals before they were randomly assigned to their respective groups. Mice had free access to food (Irradiated chow, Teklad global 18% protein rodent diet, 2918, Inotiv, WI, U.S.A) and deionized water to acclimate to the testing environment. Body weight and daily food and fluid intake were monitored and noted for all animal experiments.
A standard 4-day drinking in the dark (DID) model was used to evaluate binge-like ethanol drinking patterns in mice. A 20% v/v ethanol solution was prepared by diluting 190-proof ethyl alcohol (Sigma, MO, U.S.A) with deionized water. During days 1-3, the water bottles were temporarily removed during the dark cycle of the mice, and the mice were provided with a tube containing the 20% v/v ethanol solution for a duration of two hours. On day four, the assessment of binge-like ethanol consumption took place, where the mice were given access to the 20% v/v ethanol solution for a period of four hours. The volume of fluid in the tube (read to the closest 100 μL) was measured immediately upon placement, and at two hours and four hours into the test. Following the completion of the four hours test, approximately 100 μL of blood was collected through cardiac puncture after CO2 euthanasia. Blood samples were subjected to centrifugation at 10,000 rpm for 10 minutes. The determination of blood ethanol concentrations (BEC) was performed using an Analox AMI Analyzer (Analox Instruments, MA, U.S.A). The quantity of ethanol consumed was then calculated as grams per kilogram of the mouse's body weight.
All SCFA were used in sodium salt form. Briefly, sodium acetate (Sigma, MO, U.S.A), sodium butyrate (Sigma, MO, U.S.A), sodium valerate (Ambeed, IL, U.S.A), and sodium chloride (NaCl; Sigma, Mo, U.S.A) were prepared at 200 mM concentration freshly in drinking water every two days. These concentrations were chosen based on earlier studies conducted in mice [Qi Y., et al., Sodium acetate regulates milk fat synthesis through the activation of GPR41/GPR43 signaling pathway. Frontiers in nutrition 2023, 10:1098715; Daien C I, et al., Gut-derived acetate promotes B10 cells with anti-inflammatory effects. JCI insight 2021, 6 (7)]. All SCFA and NaCl solutions were pH verified to control for acidity effects on daily consumption. SCFAs were given to mice via oral drinking for 10 consecutive days before any experiment, and this regimen was maintained throughout the entire experiment.
General statistical analysis (non-microbiome and non-RNAseq analysis) were conducted using GraphPad Prism 8 (GraphPad, CA, USA, RRID:SCR_002798). For the calculation of ethanol consumption during the DID procedure, it was expressed as grams of ethanol per kilogram of body weight (g/kg body weight), where 20% ethanol intake was determined as follows: multiplying the drinking volume by the ethanol percentage within that volume and the density of ethanol, and then dividing this by the mouse's body weight in kilograms. Normality of data distributions was tested by Shapiro-Wilk test and by Q-Q plots. Levene's test was used to test equality of variances across groups. Unpaired Student's t-tests were used to compare behavioral testing, GABA levels, and histone acetylation measurements between the sodium valerate and NaCl groups. To evaluate the impact of antibiotic cocktail administration on ethanol consumption and BEC between the groups receiving Abx and PBS at baseline and after treatment, a mixed ANOVA test was employed, given repeated measures from the same mouse from the two time points. Similarly, mixed ANOVA tests were applied to compare various SCFA levels before and after Abx administration.

Setting [1] is: supplementation in drinking water, DID.

Turning to `CC(=O)[O-].[Na+]` [sodium acetate, reference compound], the “alcohol intake with SCFA supplement” value is listed as “no statistical changes”. Consider `CCCC(=O)[O-].[Na+]` [sodium butyrate, reference compound], for which the “alcohol intake with SCFA supplement” value is listed as “no statistical changes”. Take `CCCCC(=O)O` [valeric acid]: under setting [1], the “BEC (in words)” value is “significant reduction” and the “ethanol consumption (in words)” value is listed as “significant reduction”.
